Holding throughout (details): glazed tile
Data set [1] relates to Argentine ant, Linepithema humile. The data set can be described thus: Knockdown/mortality of ant workers under continuous exposure on treated glazed tile. An outline of the steps:
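0.5% AI imidacloprid in acetone, alone or with 0.1, 1.0 or 5.0% additive (benzenepropanoic acid, oleic acid, methyl oleate, methyl linoleate, methyl palmitate or BHA), 1 ml dried overnight on glazed tile (~161 cm^2). Ten workers confined under continuous exposure, water from 3 h; knockdown/mortality scored at intervals and 24 h; ≥3 replicates.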

The test system of data set [2] is susceptible/normal German cockroach (Monheim strain), Blattella germanica. The data set can be described thus: Knockdown/mortality of male cockroaches under continuous exposure on treated glazed tile. Format: in vivo. An outline of the steps: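 Male cockroaches continuously exposed on treated glazed tile, dried overnight before exposure; at least three replicates. Knockdown/mortality scored at intervals from 5 or 10 min, over runs lasting 20 min to 24 h depending on test.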

For data set [3], the system named is Odorous House ant, Tapinoma sessile. The data set can be described thus: Knockdown/mortality of ant workers under continuous exposure on treated glazed tile. Format: in vivo. An outline of the steps:
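Treatments applied to about 161 cm2 glazed tile and dried overnight, with at least three replicates.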

The mark [4] stands for this setting: Table 57, Argentine ant, continuous exposure.
[5] abbreviates: Table 61, German cockroach (Monheim), continuous exposure.
Where [6] appears, read: Table 46, Trial 1, fipronil/Compound A in acetone.
Setting [7] is: Table 47, Trial 2, fipronil/Compound A in acetone.
[8] abbreviates: Table 49, fipronil/adjuvant in acetone.
Where [9] appears, read: Table 53, fipronil/adjuvant in acetone, Monheim strain.
[10] abbreviates: 30 min, Table 51, fipronil/adjuvant in acetone.
[11] abbreviates: 60 min, Table 51, fipronil/adjuvant in acetone.
The mark [12] stands for this setting: 2 hr, Table 51, fipronil/adjuvant in acetone.
Where [13] appears, read: Table 51, fipronil/adjuvant in acetone.
Where [14] appears, read: Table 27, aqueous deltamethrin/adjuvant.

On to `CC[S+]([O-])c1c(C#N)nn(-c2c(Cl)cc(C(F)(F)F)cc2Cl)c1N` (stereo not drawn) [Ethiprole (1%)], for which, in data set [1] (setting [4]), the “Average % Mortality after 30 min” value amounted to 0% and the “Average % Mortality after 60 min” value amounted to 0%. The “Average % Mortality after 45 min” value in data set [1] (Table 57, Argentine ant, continuous exposure, 45 min) amounted to 0%. The “Average % Mortality after 15 min” value in data set [1] (Table 57, Argentine ant, continuous exposure, adjuvant = Compound A 1% + Compound B 0.5%) came to 0%. In data set [2] (setting [5]), the “Average % Knockdown & Mortality after 3 hr” value amounted to 13%, the “Average % Knockdown & Mortality after 5 hr” value is recorded as 27% and the “Average % Knockdown & Mortality after 24 hr” value is recorded as 73%. In data set [2] (Table 61, German cockroach (Monheim), continuous exposure, adjuvant = Compound A 1% + Compound B 0.5%, 1 hr), the “Average % Knockdown & Mortality after 1 hr” value came to 0%. Further, the “Average % Knockdown & Mortality after 30 min” value in data set [3] (Table 59, Odorous House ant, continuous exposure, 30 min) is 0%. Also, the “Average % Knockdown & Mortality after 45 min” value in data set [3] (Table 59, Odorous House ant, continuous exposure, 45 min) is 0%. For the same compound, the “Average % Knockdown & Mortality after 60 min” value in data set [3] (Table 59, Odorous House ant, continuous exposure, 60 min) is 3%. The “Average % Knockdown & Mortality after 2 hr” value in data set [3] (Table 59, Odorous House ant, continuous exposure, 2 hr) was found to be 7%. In addition, in data set [3] (Table 59, Odorous House ant, continuous exposure, adjuvant = Compound A 1% + Compound B 0.5%, 15 min), the “Average % Knockdown & Mortality after 15 min” value worked out at 0%.
On to `N#Cc1nn(-c2c(Cl)cc(C(F)(F)F)cc2Cl)c(N)c1[S+]([O-])C(F)(F)F` (stereo not drawn) [Fipronil (.001%)], for which, in data set [1] (setting [6]), the “Average % Mortality after 5 min” value came to 0%, the “Average % Mortality after 15 min” value turned out to be 0%, the “Average % Mortality after 30 min” value is on record as 0% and the “Average % Mortality after 60 min” value is given as 0%. Besides, in data set [1] (setting [6]), the “Average % Mortality after 2 hr” value is 0%, the “Average % Mortality after 4 hr” value stood at 74% and the “Average % Mortality after 24 hr” value came out at 100%. For the same compound, in data set [1] (setting [7]), the “Average % Mortality after 5 min” value worked out at 0%, the “Average % Mortality after 15 min” value is given as 0%, the “Average % Mortality after 30 min” value is listed as 0% and the “Average % Mortality after 60 min” value stood at 0%. Moreover, in data set [1] (setting [7]), the “Average % Mortality after 2 hr” value is 0%, the “Average % Mortality after 4 hr” value is 28% and the “Average % Mortality after 24 hr” value worked out at 100%. In data set [1] (setting [8]), the “Average % Mortality after 30 min” value came to 0%, the “Average % Mortality after 60 min” value stood at 0%, the “Average % Mortality after 2 hr” value is 0% and the “Average % Mortality after 3 hr” value is reported as 3%. For the same compound, the “Average % Mortality after 24 hr” value in data set [1] (setting [8]) is 100%. In addition, in data set [2] (setting [9]), the “Average % Knockdown & Mortality after 60 min” value worked out at 0%, the “Average % Knockdown & Mortality after 3 hr” value amounted to 0%, the “Average % Knockdown & Mortality after 5 hr” value is 0% and the “Average % Knockdown & Mortality after 24 hr” value was 40%. For the same compound, the “Average % Mortality after 30 min” value in data set [3] (setting [10]) worked out at 0%. Moreover, the “Average % Mortality after 60 min” value in data set [3] (setting [11]) was 0%. Further, the “Average % Mortality after 2 hr” value in data set [3] (setting [12]) was found to be 0%. Also, the “Average % Mortality after 24 hr” value in data set [3] (setting [13]) came out at 100%.
In the case of `N#Cc1nn(-c2c(Cl)cc(C(F)(F)F)cc2Cl)c(N)c1[S+]([O-])C(F)(F)F` (stereo not drawn) [Fipronil (.01%)], in data set [1] (setting [6]), the “Average % Mortality after 5 min” value came out at 0%, the “Average % Mortality after 15 min” value was 0%, the “Average % Mortality after 30 min” value came out at 0% and the “Average % Mortality after 60 min” value came out at 0%. Also, in data set [1] (setting [6]), the “Average % Mortality after 2 hr” value turned out to be 0%, the “Average % Mortality after 4 hr” value is 47% and the “Average % Mortality after 24 hr” value is 100%. Further, in data set [1] (setting [8]), the “Average % Mortality after 30 min” value was 0%, the “Average % Mortality after 60 min” value was 0%, the “Average % Mortality after 2 hr” value amounted to 0% and the “Average % Mortality after 3 hr” value is 0%. Moreover, in data set [1] (setting [8]), the “Average % Mortality after 24 hr” value is on record as 100%. For the same compound, in data set [2] (setting [9]), the “Average % Knockdown & Mortality after 60 min” value is given as 0%, the “Average % Knockdown & Mortality after 3 hr” value was 7%, the “Average % Knockdown & Mortality after 5 hr” value was 7% and the “Average % Knockdown & Mortality after 24 hr” value was found to be 100%. In data set [3] (setting [10]), the “Average % Mortality after 30 min” value is on record as 0%. Moreover, the “Average % Mortality after 60 min” value in data set [3] (setting [11]) turned out to be 0%. For the same compound, the “Average % Mortality after 2 hr” value in data set [3] (setting [12]) is recorded as 6%. For the same compound, the “Average % Mortality after 24 hr” value in data set [3] (setting [13]) is on record as 100%.
Regarding `CC1(C)[C@H](C(=O)O[C@H](C#N)c2cccc(Oc3ccccc3)c2)[C@@H]1C=C(Br)Br` [deltamethrin (1%)], the “Average % Mortality after 10 min” value in data set [1] (10 min, Table 27, aqueous deltamethrin/adjuvant) came out at 9%. In addition, the “Average % Mortality after 15 min” value in data set [1] (setting [14]) amounted to 33%. The “Average % Mortality after 20 min” value is reported as 67% in data set [1] (20 min, Table 27, aqueous deltamethrin/adjuvant); 100% in data set [2] (20 min, Table 32, aqueous deltamethrin/adjuvant, Monheim strain); 43% in data set [3] (20 min, Table 30, aqueous deltamethrin/adjuvant). In data set [1] (setting [14]), the “Average % Mortality after 30 min” value stood at 82%. Moreover, the “Average % Mortality after 4 min” value in data set [2] (4 min, Table 32, aqueous deltamethrin/adjuvant, Monheim strain) amounted to 27%. For the same compound, the “Average % Mortality after 8 min” value in data set [2] (8 min, Table 32, aqueous deltamethrin/adjuvant, Monheim strain) is reported as 100%. In data set [2] (12 min, Table 32, aqueous deltamethrin/adjuvant, Monheim strain), the “Average % Mortality after 12 min” value is 100%. Besides, the “Average % Mortality after 60 min” value in data set [3] (60 min, Table 30, aqueous deltamethrin/adjuvant) worked out at 80%. Besides, in data set [3] (90 min, Table 30, aqueous deltamethrin/adjuvant), the “Average % Mortality after 90 min” value was 90%. In addition, the “Average % Mortality after 2 hr” value in data set [3] (2 hr, Table 30, aqueous deltamethrin/adjuvant) is given as 93%.

Values taken from US9028856B2, “Synergistic pesticide compositions” (priority 2008, dated 2015).
